Measurements published in patent publication US20100209345A1, “Fluorinated Ligands for Targeting Peripheral Benzodiazepine Receptors” (Australian Nuclear Science & Technology Organisation, priority 2006, published 2010).
“And” between values parts separate entries of the source, which are not always exact repeats. Identical values can stand only once. Like-named read-outs stand apart in the source and are kept apart here. Values belong to the molecule of their own block, whether it stands above or below them.

What was measured:
[1] = target: T1, peripheral benzodiazepine binding site (Rattus norvegicus, UniProt P16257); assay: In vitro binding, [3H]-PK11195, kidney membrane preparation; conditions: [3H]-PK11195 (2 nM), 4° C., 1 h
T1 construct: diluted kidney membrane preparation (200 μg); from tissue; host or cells: kidney membrane preparation
Description: Non-specific binding was determined with PK11195 (10 μM).
(§1) Non-specific binding was determined with Flumazenil (20 μM). In both cases, incubations were terminated by rapid filtration through Whatman GF/B glass fibre. Filters were immediately washed 3 times with 5 mL ice-cold 50 mM Tris/HCl at pH 7.4. Filters were counted in a β-scintillation counter (Packard) to measure the amount of bound radioactivity. The IC50 of the compounds for the peripheral benzodiazepine binding site and the central benzodiazepine receptor were calculated using Kell 6 software.

[2] = target: central benzodiazepine receptors; assay: In vitro binding, [3H]-Flumazenil, brain cortex membrane preparation; conditions: [3H]-Flumazenil (2 nM), 25° C., 45 min, read-out: CBR IC50
Description: as §1

[3] = LogP HPLC
[4] = Biodistribution of 18F-labelled tracers in rats; format: in vivo; conditions: SD rats; for Biodistribution: Adrenals / Biodistribution: Bladder / Biodistribution: Blood / Biodistribution: Bone / Biodistribution: Brain / Biodistribution: GIT / Biodistribution: Heart / Biodistribution: Kidney / Biodistribution: Liver / Biodistribution: Lungs / Biodistribution: Muscle / Biodistribution: Olfactory bulbs / Biodistribution: Pancreas / Biodistribution: Skin / Biodistribution: Spleen / Biodistribution: Stomach / Biodistribution: Testes / Biodistribution: Thymus / Biodistribution: Thyroid: decay correction not stated
Description: [^18F]Fluoride, in the form of H^18F, was produced by the ^18O(p,n)^18F nuclear reaction by bombardment of ^18O-enriched water target. The aqueous [^18F]fluoride solution was added to a 2.5-mL wheaton vial containing dry acetonitrile (1 mL), Kryptofix 2.2.2 (5 mg, 13.3 μmol) and potassium carbonate (2 mg, 14.5 μmol). The solvent was evaporated under a stream of nitrogen at 90° C. with a reducing vacuum. This azeotropic drying was repeated twice by further addition of acetonitrile (2×1 mL). The tosylate precursor 2-(2-(4-(2-tosylethoxy)phenyl)-6-chloroimidazo[1,2-a]pyridin-3-yl)-N,N-diethylacetamide (2 mg, 3.6 μmol) was dissolved in acetonitrile (1 ml) and added to the dried K222.K2CO3.KF complex. Stirring and heating at 90° C. continued for 10 to 15 mins before the reaction mixture was diluted with mobile phase and purified by reverse phase HPLC on an Alltech Alltima, C18, 10μ, 250×22 mm column eluting at 10 mLs/min with 45% acetonitrile, 55% water with 0.1% TFA.
The biodistribution of PBR132* was undertaken in SD rats and analysis up to 4 h p.i. in the brain and peripheral tissues was performed. The specificity and selectivity of the tracer were assessed by pre-treatment with PBR and Central benzodiazepine receptor (CBR) specific ligands (1 mg/kg) 5 min prior to injection of PBR132*.
The biodistribution of PBR 147* was performed in SD rats and brain and peripheral tissues were analysised at 15, 30 min, 1, and 4 h p.i. The specificity and selectivity of the tracer was assessed by pre-treatment of the animals with the PBR ligands PK11195 and Ro 5-4864 and with Flumazenil for CBR at 1 mg/kg 5 min prior to injection of PBR 147*
The biodistribution of PBR102* and PBR111* were performed in SD rats and brain and peripheral tissues analysed at 15, 30 min, 1, and 4 h p.i. The specificity and selectivity of the tracers were assessed by pre-treatment with the PBR ligands PK11195 and Ro 5-4864 and with Flumazenil for CBR at 1 mg/kg 5 min prior to injection of the corresponding tracers.
The specificity and selectivity of the tracers were assessed by pre-treatment with the PBR ligands PK11195 and Ro 5-4864 and with Flumazenil for CBR at 1 mg/kg 5 min prior to injection of the corresponding tracers.

Molecule: CCN(CC)C(=O)Cc1c(-c2ccc(C(C)(C)C)cc2)nc2ccc(F)nn12 [PBR 132, 2-(2-(4-tert-butylphenyl)-6-fluoroimidazo[1,2-b]pyridazin-3-yl)-N,N-diethylacetamide]
IC50 ([1]; PBR IC50 (nM)): 38 nM
IC50 [2]: 343 nM
chromatographic logP [3]: 3.6 ± 0.11

Biodistribution: Adrenals ([4]; 15 min): 5.64 ± 0.53 % ID/g
Biodistribution: Bladder ([4]; 15 min): 0.46 ± 0.18 % ID/g
Biodistribution: Blood ([4]; 15 min): 0.23 ± 0.03 % ID/g
Biodistribution: Bone ([4]; 15 min): 0.64 ± 0.03 % ID/g
Biodistribution: Brain ([4]; 15 min): 0.21 ± 0.01 % ID/g
Biodistribution: GIT ([4]; 15 min): 0.83 ± 0.09 % ID/g
Biodistribution: Heart ([4]; 15 min): 5.86 ± 0.44 % ID/g
Biodistribution: Kidney ([4]; 15 min): 3.9 % ID/g and 3.85 ± 0.24 % ID/g
Biodistribution: Liver ([4]; 15 min): 0.63 ± 0.06 % ID/g
Biodistribution: Lungs ([4]; 15 min): 14.55 ± 1.35 % ID/g
Biodistribution: Muscle ([4]; 15 min): 0.65 ± 0.14 % ID/g
Biodistribution: Olfactory bulbs ([4]; 15 min): 0.35 % ID/g and 0.35 ± 0.03 % ID/g
Biodistribution: Pancreas ([4]; 15 min): 1.70 ± 0.13 % ID/g
Biodistribution: Skin ([4]; 15 min): 0.35 ± 0.04 % ID/g
Biodistribution: Spleen ([4]; 15 min): 4.60 ± 0.29 % ID/g
Biodistribution: Stomach ([4]; 15 min): 0.45 ± 0.18 % ID/g
Biodistribution: Testes ([4]; 15 min): 0.184 ± 0.006 % ID/g
Biodistribution: Thymus ([4]; 15 min): 0.62 ± 0.17 % ID/g
Biodistribution: Thyroid ([4]; 15 min): 6.94 ± 1.04 % ID/g
Biodistribution: Adrenals ([4]; 30 min): 6.6 % ID/g and 6.56 ± 1.20 % ID/g
Biodistribution: Bladder ([4]; 30 min): 0.42 ± 0.08 % ID/g
Biodistribution: Blood ([4]; 30 min): 0.16 ± 0.01 % ID/g
Biodistribution: Bone ([4]; 30 min): 0.70 ± 0.02 % ID/g
Biodistribution: Brain ([4]; 30 min): 0.14 ± 0.01 % ID/g
Biodistribution: GIT ([4]; 30 min): 0.90 ± 0.03 % ID/g
Biodistribution: Heart ([4]; 30 min): 5.59 ± 0.26 % ID/g
Biodistribution: Kidney ([4]; 30 min): 3.62 ± 0.53 % ID/g
Biodistribution: Liver ([4]; 30 min): 0.54 ± 0.18 % ID/g
Biodistribution: Lungs ([4]; 30 min): 8.82 ± 0.53 % ID/g
Biodistribution: Muscle ([4]; 30 min): 0.55 ± 0.03 % ID/g
Biodistribution: Olfactory bulbs ([4]; 30 min): 0.28 ± 0.03 % ID/g
Biodistribution: Pancreas ([4]; 30 min): 1.33 ± 0.16 % ID/g
Biodistribution: Skin ([4]; 30 min): 0.49 ± 0.02 % ID/g
Biodistribution: Spleen ([4]; 30 min): 4.71 ± 0.61 % ID/g
Biodistribution: Stomach ([4]; 30 min): 0.32 ± 0.04 % ID/g
Biodistribution: Testes ([4]; 30 min): 0.209 ± 0.007 % ID/g
Biodistribution: Thymus ([4]; 30 min): 0.66 ± 0.14 % ID/g
Biodistribution: Thyroid ([4]; 30 min): 7.99 ± 1.83 % ID/g
Biodistribution: Adrenals ([4]; 60 min): 7.82 ± 1.73 % ID/g
Biodistribution: Bladder ([4]; 60 min): 0.72 ± 0.17 % ID/g
Biodistribution: Blood ([4]; 60 min): 0.14 ± 0.01 % ID/g
Biodistribution: Bone ([4]; 60 min): 0.79 ± 0.03 % ID/g
Biodistribution: Brain ([4]; 60 min): 0.13 ± 0.02 % ID/g
Biodistribution: GIT ([4]; 60 min): 1.31 ± 0.08 % ID/g
Biodistribution: Heart ([4]; 60 min): 6.45 ± 0.43 % ID/g
Biodistribution: Kidney ([4]; 60 min): 3.53 ± 0.24 % ID/g
Biodistribution: Liver ([4]; 60 min): 0.40 ± 0.05 % ID/g
Biodistribution: Lungs ([4]; 60 min): 5.66 ± 0.56 % ID/g
Biodistribution: Muscle ([4]; 60 min): 0.43 ± 0.02 % ID/g
Biodistribution: Olfactory bulbs ([4]; 60 min): 0.29 ± 0.03 % ID/g
Biodistribution: Pancreas ([4]; 60 min): 1.08 ± 0.19 % ID/g
Biodistribution: Skin ([4]; 60 min): 0.48 ± 0.04 % ID/g
Biodistribution: Spleen ([4]; 60 min): 4.51 ± 0.70 % ID/g
Biodistribution: Stomach ([4]; 60 min): 0.41 ± 0.09 % ID/g
Biodistribution: Testes ([4]; 60 min): 0.266 ± 0.019 % ID/g
Biodistribution: Thymus ([4]; 60 min): 0.77 ± 0.12 % ID/g
Biodistribution: Thyroid ([4]; 60 min): 9.90 ± 3.67 % ID/g
Biodistribution: Bladder ([4]; 4 hours): 0.80 ± 0.11 % ID/g
Biodistribution: Blood ([4]; 4 hours): 0.16 ± 0.01 % ID/g
Biodistribution: Bone ([4]; 4 hours): 1.0 % ID/g and 1.07 ± 0.05 % ID/g
Biodistribution: Brain ([4]; 4 hours): 0.15 ± 0.01 % ID/g
Biodistribution: GIT ([4]; 4 hours): 1.90 ± 0.09 % ID/g
Biodistribution: Heart ([4]; 4 hours): 4.29 ± 0.86 % ID/g
Biodistribution: Kidney ([4]; 4 hours): 2.4 % ID/g and 2.41 ± 0.40 % ID/g
Biodistribution: Liver ([4]; 4 hours): 0.29 ± 0.04 % ID/g
Biodistribution: Lungs ([4]; 4 hours): 2.80 ± 0.51 % ID/g
Biodistribution: Muscle ([4]; 4 hours): 0.30 ± 0.05 % ID/g
Biodistribution: Olfactory bulbs ([4]; 4 hours): 0.31 % ID/g and 0.31 ± 0.05 % ID/g
Biodistribution: Pancreas ([4]; 4 hours): 0.56 ± 0.09 % ID/g
Biodistribution: Skin ([4]; 4 hours): 0.65 ± 0.05 % ID/g
Biodistribution: Spleen ([4]; 4 hours): 2.88 ± 0.56 % ID/g
Biodistribution: Stomach ([4]; 4 hours): 0.79 ± 0.16 % ID/g
Biodistribution: Testes ([4]; 4 hours): 0.349 ± 0.011 % ID/g
Biodistribution: Thymus ([4]; 4 hours): 0.91 ± 0.05 % ID/g
Biodistribution: Thyroid ([4]; 4 hours): 7.97 ± 1.37 % ID/g
Blood activity level / concentration in the blood over the 4 h study period ([4]; throughout 15 min to 4 h): 0.23%
IC50 [2]: > 5000 nM
chromatographic logP [3]: 2.54 ± 0.08
Molecule: CCN(CC)C(=O)Cc1c(-c2ccc(OCCF)cc2)nn2c(C)cc(C)nc12 [PBR099, 2-(2-(4-(2-fluoroethoxy)phenyl)-5,7-dimethylpyrazolo[1,5-a]pyrimidin-3-yl)-N,N-diethylacetamide]

Molecule: CN(C(=O)Cc1c(-c2ccc(OCCF)cc2)nc2ccc(Cl)cn12)c1ccccc1 [PBR 149, 2-(2-(4-(2-fluoroethoxy)phenyl)-6-chloroimidazo[1,2-a]pyridin-3-yl)-N-methyl-N-phenylacetamide]
IC50 ([1]; PBR IC50 (nM)): 4.7 nM
IC50 [2]: 357 nM
chromatographic logP [3]: 3.57 ± 0.11

Molecule: 2-(6-chloro-2-(4-methoxyphenyl)imidazo[1,2-b]pyridazin-3-yl)-N,N-diethylacetamide [PBR 133]
IC50 ([1]; read-out: PBR IC50): 32 nM
IC50 [2]: 18.8 nM
LogP HPLC ([3]; HPLC): 2.35 ± 0.07

IC50 ([1]; read-out: PBR IC50): 800 nM
IC50 [2]: 2620 nM
chromatographic logP [3]: 4.23 ± 0.13
Molecule: CC(C)(C)c1ccc(-c2nc3ccc(F)nn3c2CNC(=O)c2ccccc2)cc1 [PBR 139, N-((2-(4-tert-butylphenyl)-6-fluoroimidazo[1,2-b]pyridazin-3-yl)methyl)benzamide]

Molecule: CCN(CC)C(=O)Cc1c(-c2ccc(C(C)(C)C)cc2)nc2ccc(F)nn12 [Compound 1, reference compound]
IC50 ([1]; PBR IC50 (nM)): 29 nM
IC50 [2]: 340 nM
